“Also recorded” adds a separate entry of the source.
Legend:
DNMT2 [1] = target: T1, DNMT2 (Homo sapiens, UniProt O14717); assay: MST displacement assay with fluorescent FTAD probe; type: binding; parameters: Fnorm (MST screening): unit not given here; conditions: for Fnorm (% displ.): FTAD displacement / Fnorm (MST screening): ligand 100 μM, FTAD probe
T1 construct: Recombinant human DNMT2 (full-length); His-tag; made in house; host or cells: E. coli
T1 sequence (O14717 1-391): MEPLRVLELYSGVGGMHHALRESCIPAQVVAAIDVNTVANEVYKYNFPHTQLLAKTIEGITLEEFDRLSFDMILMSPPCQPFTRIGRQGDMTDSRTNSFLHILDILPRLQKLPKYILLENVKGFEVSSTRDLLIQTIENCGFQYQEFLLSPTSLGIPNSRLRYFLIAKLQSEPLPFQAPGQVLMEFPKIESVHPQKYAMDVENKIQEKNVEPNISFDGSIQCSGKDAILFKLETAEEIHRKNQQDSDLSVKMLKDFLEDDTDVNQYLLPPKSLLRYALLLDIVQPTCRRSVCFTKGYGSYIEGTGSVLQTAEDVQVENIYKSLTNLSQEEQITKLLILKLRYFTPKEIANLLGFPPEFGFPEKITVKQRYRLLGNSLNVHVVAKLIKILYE
Description: Screening for ligand binding and evaluation of dose-response affinity profiles was performed via microscale thermophoresis (MST) as described previously.[42] The measurements were conducted with a Nanotemper Technologies Monolith NT.115 device. All samples were measured in Monolith standard capillaries at 25 °C. The acquisition mode was set to “Nano-Blue” with an excitation power of 30% and a medium MST power, while the system was controlled using the software MO.Control (version 1.6.1) and for evaluation MO.Affinity Analysis (version 2.3) was used. The samples contained 2 μM DNMT2, 100 nM FTAD (5-FAM-triazolyl-adenosyl-Dab) probe, and 1.3% DMSO in MST buffer (50 mM HEPES, 150 mM NaCl, 1 mM dithiothreitol (DTT), 0.1% PEG-8000, 0.05% polysorbate-20, pH 7.4).[42] All compounds were employed at a final concentration of 100 μM for the initial ligand screening.

DNMT2 [2] = target: T1, DNMT2; assay: Isothermal titration calorimetry (ITC), direct titration; type: binding; conditions: direct titration at 25 °C; n.b. = no enthalpy signal observable
Description: The DNMT2 protein was purified via size exclusion chromatography eluting in isothermal titration calorimetry (ITC) buffer (50 mM sodium phosphate pH 8.0, 300 mM NaCl, 1 mM EDTA, 2 mM β-mercaptoethanol, 0.1% polysorbate-20) and directly used for measurements.[3] All compounds were dissolved in DMSO to a concentration of 5 mM and were then diluted in ITC buffer to a final concentration of 500 μM. DNMT2 was diluted to a final concentration of 50 μM with 10% DMSO to match the ligand stocks' DMSO concentration. For the ITC measurements, a MicroCal PEAQ-ITC Automated workstation (Malvern Panalytical) with a 200 μL Hastelloy cell and an injection syringe volume of 40 μL was used. All experiments were performed in triplicates at 25 °C unless otherwise noted. For each measurement, 19 compound injections (2 μL each) with an injection speed of 0.5 μL/s were added to the reaction cell containing DNMT2. The spacing time between sequential injections was 300 s, and the stirring speed was set to 750 rpm with a reference power of 42 μW. As control experiments, ligands were titrated into ITC buffer. Data analysis and fitting were carried out using the MicroCal PEAQ-ITC Analysis Software 1.21 and plotted in GraphPad Prism 8.0.1.

[3] = Parallel artificial membrane permeation assay (PAMPA); type: in vitro ADME; conditions: 7 h incubation, duplicates
Description: To determine the passive permeability of selected DNMT2 ligands, a parallel artificial membrane permeation assay (PAMPA) was performed as described previously.[68] The experiment was performed in duplicates with Sigma-Aldrich MAIPNTR10 donor plates with 5 μL of an artificial membrane (1% w/v L-α-phosphatidylcholine in n-dodecane) per well. After incubation for 7 h, the acceptor solutions were evaluated by LC/MS (HP Agilent 1100 Series). The peak areas in the UV chromatogram (λ = 210 nm) were used to calculate the areas under the curve (AUCs).

DNMT2 [4] = target: T1, DNMT2; assay: MST with DEL hit-derived fluorescent tracers 6-8, DNMT2 varied; conditions: probe 100 nM instead of FTAD, read-out: probe binding affinity (MST, apparent KD)
DNMT2 [5] = target: T1, DNMT2; assay: ^3H-based methyltransferase enzyme activity assay (^3H-SAM incorporation into tRNA^Asp); type: biochemical
Description: Enzymatic DNMT2 inhibition assays were carried out in 100 mM Tris-HCl, pH 8.0, 100 mM NH4OAc, 0.1 mM EDTA, 10 mM MgCl2, and 10 mM DTT as described previously.[3]^,[4] First, the tRNA^Asp substrate was heated to 75 °C for 5 min and cooled down to room temperature (RT) before it was added to the reaction mixture to a final concentration of 5 μM. The reaction mixture contained 250 nM DNMT2 and the ligand compounds at variable concentrations (5% DMSO). Enzymatic reactions were started by the addition of 0.9 μM SAM as a mixture of ^3H-SAM (Hartmann Analytics) resp. cold SAM (NEB) to a final activity of 0.025 μCi μL^−1. Enzyme assays were carried out for 30 min at 37 °C. As a negative control served the reaction mixture without DNMT2 and as a positive control the reaction mixture without test compound. After 30 min, aliquots of 8 μL were taken from the reaction mixture and spotted on Whatman glass microfiber filters (GF/C, 25 mm). The RNA was precipitated on the filters with 5% ice-cold TCA for 15 min. […] Scintillation was measured with a scintillation counter (TriCarb Liquid Scintillation Analyzer 4810 TR; measurement time of 1 min). For IC50-value determination, compounds were analyzed at a minimum of six different concentrations in triplicates. IC50-values were calculated, evaluated, and plotted in GraphPad Prism 8.0.1.

DNMT2 [6] = target: T1, DNMT2; assay: Fluorescence polarization (FP) assay with probe 6; type: binding
Description: (§1) Fluorescence polarization (FP) measurements with RNA MTases and small-molecule fluorescent tracers were conducted in black Greiner 96-well half-area plates using a Tecan Spark 10M plate reader as described previously.[44] The reader was equipped with polarization filters coupled to a monochromator setup (λex = 480 nm, λem = 530 nm). For selectivity screening, reaction mixtures contained varying concentrations of recombinant enzyme (DNMT1, DNMT2, DNMT3A/3L, NSUN2, NSUN3, or NSUN6; preparation see below) and 10 nM DEL hit-derived probe 6 in MST buffer. For displacement experiments, 100 μM SAH or 10 μM tRNA^Asp were added from buffered stock solutions to the DNMT2-containing mixtures. All measurements were performed as triplicates. Polarization values (in mP) were calculated from polarization-specific parallel and orthogonal fluorescence intensities according to the Tecan in-built calculation routine. KD-values were calculated and plotted in GraphPad Prism 8.0.1.

NSUN2 = target: T2, NSUN2 (Homo sapiens, UniProt Q08J23); assay: FP selectivity assay with probe 6; type: binding; conditions: enzyme concentrations up to 20 μM
T2 construct: made in house; host or cells: E. coli
Description: as §1

NSUN3 = target: T3, NSUN3 (Homo sapiens, UniProt Q9H649); assay: FP selectivity assay with probe 6; type: binding; conditions: enzyme concentrations up to 20 μM
T3 construct: made in house
T3 sequence (Q9H649 1-340): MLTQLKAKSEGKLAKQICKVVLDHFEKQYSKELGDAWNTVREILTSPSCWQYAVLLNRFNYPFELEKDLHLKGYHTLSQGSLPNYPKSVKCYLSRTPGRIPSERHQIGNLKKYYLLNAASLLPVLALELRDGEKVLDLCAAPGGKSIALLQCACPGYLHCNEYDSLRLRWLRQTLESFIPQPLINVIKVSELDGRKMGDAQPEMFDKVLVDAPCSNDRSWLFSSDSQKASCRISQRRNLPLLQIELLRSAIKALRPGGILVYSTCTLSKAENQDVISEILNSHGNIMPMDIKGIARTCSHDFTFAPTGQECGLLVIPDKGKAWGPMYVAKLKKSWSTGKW
Description: as §1

DNMT1 = target: T4, DNMT1 (Homo sapiens, UniProt P26358); assay: FP selectivity assay with probe 6; type: binding; conditions: enzyme concentrations up to 20 μM
T4 construct: purchased ActiveMotif 31404
Description: as §1

NSUN6 = target: T5, NSUN6 (Homo sapiens, UniProt Q8TEA1); assay: FP selectivity assay with probe 6; type: binding; conditions: enzyme concentrations up to 20 μM
T5 construct: made in house; host or cells: E. coli
T5 sequence (Q8TEA1 1-469): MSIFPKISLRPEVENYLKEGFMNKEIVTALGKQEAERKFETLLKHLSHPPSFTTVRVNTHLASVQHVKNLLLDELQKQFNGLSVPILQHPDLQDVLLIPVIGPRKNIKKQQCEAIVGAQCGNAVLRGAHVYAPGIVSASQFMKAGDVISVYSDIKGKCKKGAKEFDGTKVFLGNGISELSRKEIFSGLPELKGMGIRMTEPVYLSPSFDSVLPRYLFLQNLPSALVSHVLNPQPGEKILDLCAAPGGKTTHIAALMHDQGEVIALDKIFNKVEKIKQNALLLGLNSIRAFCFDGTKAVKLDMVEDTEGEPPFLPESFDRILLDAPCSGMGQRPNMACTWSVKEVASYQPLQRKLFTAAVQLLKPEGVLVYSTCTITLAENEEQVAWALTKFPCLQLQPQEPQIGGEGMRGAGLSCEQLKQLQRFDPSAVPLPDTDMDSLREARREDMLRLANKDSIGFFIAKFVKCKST
Description: as §1

DNMT3A/3L = target: T6, DNMT3A/3L (UniProt Q9CWR8+Q9Y6K1); assay: FP selectivity assay with probe 6; type: binding, human; conditions: enzyme concentrations up to 20 μM
T6 construct: made in house; host or cells: E. coli
Description: as §1

[7] = test system: tRNA modifications (m^5C) in MOLM-13 cells; assay: LC-MS/MS tRNA modification analysis of treated cells; type: cell-based, human; conditions: 72 h; for m^5C reduction in tRNA: relative to DMSO
[8] = test system: MOLM-13, Huh-7 and MDA-MB-231 cells; assay: Cell viability assay, pre-cultivation with compound then doxorubicin; type: cell-based, human; conditions: for susceptibility to subsequent doxorubicin treatment (synergy): compound 50 μM, then doxorubicin
Description: Cell viability assays were conducted with MOLM-13 cells, Huh-7, MDA-MB-231, HEK293, and HCT MTase mutant cell lines (WT, knock-down DNMT2, and knock-down NSUN2) to investigate the DNMT2 inhibiting compounds’ cellular effect. Cells were cultured according to standard protocols: MOLM-13 (RPMI, 10% FBS, 1x Penicillin/Streptomycin, 37 °C, 5% CO2), Huh-7/MDA-MB-231/HEK293 (DMEM, 10% FBS, 1x Penicillin/Streptomycin, 37 °C, 5% CO2) and HCT (McCoys’s 5A Medium, 10% FBS, L-Glutamine, 1x Penicillin/Streptomycin, 37 °C, 5% CO2). Cell viability was assessed using Promega Cell Titer Glo assay kit (MOLM-13, Huh-7, MDA-MB-231, HEK293) or Lonza ViaLight Plus Cell Proliferation and Cytotoxicity BioAssay Kit (HCT cell lines). […] Then, the cell titer reagent was added to each well according to the manufacturer’s protocols, and luminescence was measured using a Tecan Spark 10M plate reader (MOLM-13, Huh-7, MDA-MB-231, HEK293) or Molecular Devices FlexStation (HCT cell lines).

T2 sequence (Q08J23 whole entry): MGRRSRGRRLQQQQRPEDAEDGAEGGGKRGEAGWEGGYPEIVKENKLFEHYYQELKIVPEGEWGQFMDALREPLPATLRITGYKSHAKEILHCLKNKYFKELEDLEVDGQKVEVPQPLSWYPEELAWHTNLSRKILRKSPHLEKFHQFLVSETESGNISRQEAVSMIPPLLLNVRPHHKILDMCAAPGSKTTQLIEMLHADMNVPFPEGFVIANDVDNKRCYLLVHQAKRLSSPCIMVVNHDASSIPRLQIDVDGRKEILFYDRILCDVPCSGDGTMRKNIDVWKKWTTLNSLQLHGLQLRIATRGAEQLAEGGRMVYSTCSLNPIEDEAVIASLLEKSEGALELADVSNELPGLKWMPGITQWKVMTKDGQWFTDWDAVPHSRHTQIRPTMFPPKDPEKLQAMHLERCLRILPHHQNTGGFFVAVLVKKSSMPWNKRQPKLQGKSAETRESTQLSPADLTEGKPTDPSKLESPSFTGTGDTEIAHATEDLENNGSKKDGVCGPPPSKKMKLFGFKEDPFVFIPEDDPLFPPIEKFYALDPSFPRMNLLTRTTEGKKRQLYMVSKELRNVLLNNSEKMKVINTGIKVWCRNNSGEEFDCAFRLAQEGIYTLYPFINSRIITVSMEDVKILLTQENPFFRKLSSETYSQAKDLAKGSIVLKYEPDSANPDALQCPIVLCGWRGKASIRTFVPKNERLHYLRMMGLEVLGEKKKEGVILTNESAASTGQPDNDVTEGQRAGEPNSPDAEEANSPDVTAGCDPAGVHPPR
T4 sequence (P26358 whole entry): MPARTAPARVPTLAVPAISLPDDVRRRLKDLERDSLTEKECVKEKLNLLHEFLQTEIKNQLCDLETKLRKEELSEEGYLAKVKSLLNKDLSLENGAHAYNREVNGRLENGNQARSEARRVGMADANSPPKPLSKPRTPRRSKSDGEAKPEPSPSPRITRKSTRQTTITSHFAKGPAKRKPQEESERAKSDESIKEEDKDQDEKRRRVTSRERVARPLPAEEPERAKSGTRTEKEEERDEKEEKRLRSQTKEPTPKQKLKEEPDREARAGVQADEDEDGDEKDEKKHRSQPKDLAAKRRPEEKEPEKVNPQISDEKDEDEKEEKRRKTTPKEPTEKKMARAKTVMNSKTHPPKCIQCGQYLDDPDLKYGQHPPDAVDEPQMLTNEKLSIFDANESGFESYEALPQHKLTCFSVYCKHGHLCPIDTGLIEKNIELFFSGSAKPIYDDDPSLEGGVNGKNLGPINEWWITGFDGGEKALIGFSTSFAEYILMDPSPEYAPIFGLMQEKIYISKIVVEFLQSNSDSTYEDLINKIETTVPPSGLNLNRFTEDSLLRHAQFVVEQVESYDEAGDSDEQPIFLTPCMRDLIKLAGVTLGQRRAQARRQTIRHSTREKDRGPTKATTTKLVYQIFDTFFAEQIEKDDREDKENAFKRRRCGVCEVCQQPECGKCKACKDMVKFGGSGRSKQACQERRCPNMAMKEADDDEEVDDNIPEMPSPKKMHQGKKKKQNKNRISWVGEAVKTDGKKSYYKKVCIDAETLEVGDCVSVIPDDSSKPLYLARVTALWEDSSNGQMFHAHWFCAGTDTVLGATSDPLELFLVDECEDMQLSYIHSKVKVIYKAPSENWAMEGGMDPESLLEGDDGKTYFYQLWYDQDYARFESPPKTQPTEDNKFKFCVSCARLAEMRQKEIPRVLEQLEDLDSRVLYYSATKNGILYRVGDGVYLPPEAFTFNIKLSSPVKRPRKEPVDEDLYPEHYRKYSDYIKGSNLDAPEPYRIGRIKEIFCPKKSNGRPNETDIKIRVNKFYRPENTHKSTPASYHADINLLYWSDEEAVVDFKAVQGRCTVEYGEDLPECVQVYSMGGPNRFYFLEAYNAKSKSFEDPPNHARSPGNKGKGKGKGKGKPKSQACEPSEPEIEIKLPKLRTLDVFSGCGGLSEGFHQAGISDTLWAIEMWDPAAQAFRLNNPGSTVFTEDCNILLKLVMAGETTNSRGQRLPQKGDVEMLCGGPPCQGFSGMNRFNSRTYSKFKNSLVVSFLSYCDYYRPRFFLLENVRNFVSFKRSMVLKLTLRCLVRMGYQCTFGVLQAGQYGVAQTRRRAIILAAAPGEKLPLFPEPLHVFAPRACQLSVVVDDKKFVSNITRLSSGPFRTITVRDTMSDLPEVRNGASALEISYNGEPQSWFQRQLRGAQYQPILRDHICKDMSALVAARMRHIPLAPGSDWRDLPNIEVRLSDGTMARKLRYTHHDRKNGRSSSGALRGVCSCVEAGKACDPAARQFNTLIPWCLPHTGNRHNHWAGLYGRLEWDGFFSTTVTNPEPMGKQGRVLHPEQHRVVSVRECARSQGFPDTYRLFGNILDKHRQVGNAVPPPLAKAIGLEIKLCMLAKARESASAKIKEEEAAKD

SMILES: CCc1ccc(C(=O)NCC2(C(=O)N[C@H](Cc3c[nH]c4ccccc34)C(=O)NCC(N)=O)CC2)cc1 [Compound 30]
- Fnorm (% displ.): FTAD displacement (DNMT2 [1]): 5%
- Fnorm (MST screening) (DNMT2 [1]): 861.5
- ITC (KD) (DNMT2 [2]): n.b.

SMILES: CCc1ccc(C(=O)NCC2(C(=O)N[C@@H](CC(=O)NCC(=O)N(C)C)Cc3ccccc3)CC2)cc1 [Compound 47]
- Papp (PAMPA) [3]: failed to pass through the artificial membrane; also recorded: below detection limit
- Fnorm (% displ.): FTAD displacement (DNMT2 [1]): 36%
- Fnorm (MST screening) (DNMT2 [1]): 901.0

SMILES: Cc1cccc(N(C)c2nc(N[C@H](C(=O)NCCCCCCNC(=O)CCCCC[N+]3=C(/C=C/C=C/C=C4/N(C)c5ccccc5C4(C)C)C(C)(C)c4ccccc43)[C@@H](C)OC(C)(C)C)nc(N3CCN(c4c(C)cccc4C)CC3)n2)c1 [Compound 7]
- Kd (DNMT2 [4]): 1360 nM

SMILES: CNC(=O)C(NC(=O)C(Cc1c[nH]c2cc(Cl)ccc12)NC(=O)C(CO)NCC(C)Cc1ccc2c(c1)OCO2)C1CCCCC1 (stereo not shown) [Compound 4]
- IC50 (DNMT2 [5]): 44400 ± 12900 nM
- FTAD displacement in the MST assay (DNMT2 [1]; DEL hits, result in words): did not lead to FTAD displacement
- Kd (DNMT2 [1]; FTAD probe 100 nM, 2 μM DNMT2, n.b. = no thermophoresis shift observable): 105000 ± 9000 nM
- ITC (KD) (DNMT2 [2]): n.b.

SMILES: CCc1ccc(C(=O)NCC2(C(=O)N[C@H](CC(=O)NCC(=O)NCCCCCCNC(=O)c3ccc(-c4c5ccc(=N)c(S(=O)(=O)O)c-5oc5c(S(=O)(=O)O)c(N)ccc45)c(C(=O)O)c3)Cc3ccccc3)CC2)cc1 [Compound 6]
- fluorescence polarization of probe-DNMT2 complex (DNMT2 [6]; probe 6 with DNMT2 (enzyme-free buffer 5 mP)): 220 mP
- Kd (DNMT2 [4]): 1650 nM
- probe binding to NSUN2 (FP) (NSUN2): does not bind
- probe binding to NSUN3 (FP) (NSUN3): does not bind
- probe binding to DNMT1 (FP) (DNMT1): does not bind
- probe binding to NSUN6 (FP) (NSUN6): does not bind
- probe binding to DNMT3A/3L (FP) (DNMT3A/3L): does not bind

SMILES: Nc1ncnc2c1ncn2[C@@H]1O[C@H](CSCC[C@H](N)C(=O)O)[C@@H](O)[C@H]1O [SAH, S-adenosylhomocysteine, reference compound]
- displacement of probe 6 from DNMT2 (FP) (DNMT2 [6]; SAH 100 μM or tRNA^Asp 10 μM added to DNMT2 2 μM): able to displace probe 6

SMILES: CCc1ccc(C(=O)NCC2(C(=O)NC(CC(=O)NCC(N)=O)Cc3ccc(C#N)cc3)CC2)cc1 (stereo not shown) [Compound 34]
- m^5C reduction in tRNA ([7]; MOLM-13, 50 μM): no reduction of m^5C in tRNA
- Fnorm (% displ.): FTAD displacement (DNMT2 [1]): 13%
- Fnorm (MST screening) (DNMT2 [1]): 879.4
- susceptibility to subsequent doxorubicin treatment (synergy) [8]: did not lead to a synergistic reduction in viability

SMILES: CCc1ccc(C(=O)NCC2(C(=O)N[C@H](CC(=O)NCC(=O)NCCCCCCNC(=O)c3ccc(-c4c5ccc(=[N+](C)C)cc-5oc5cc(N(C)C)ccc45)c(C(=O)O)c3)Cc3c[nH]c4ccccc34)CC2)cc1 [Compound 8]
- Kd (DNMT2 [4]): 700 nM

SMILES: CCc1ccc(C(=O)NCC2(C(=O)NC(CC(=O)NCC(N)=O)Cc3ccc(Cl)cc3)CC2)cc1 (stereo not shown) [Compound 16]
- change in RNA modifications ([7]; MOLM-13, 5 μM): too low to stimulate any significant change in RNA modifications
- changes of other (non-m^5C) tRNA modifications ([7]; MOLM-13, 50 μM): only minor other modification changes were observed
- m^5C reduction in tRNA ([7]; MOLM-13, 50 μM): ~25%
- Papp (PAMPA) [3]: ~ 0.30 10^−6 cm/s
- Papp at 7 h ([3]; PAMPA): 0.3 ×10⁻⁶ cm/s
- cellular viability after cultivation with compound alone ([8]; 50 μM, two passages of three days each): no observable reduction in cellular viability
- susceptibility to subsequent doxorubicin treatment (synergy) [8]: made the cells more susceptible to the subsequent treatment with doxorubicin
